The results in this text go back to paper PMC11932959, “Sulfonamide‐Bearing Pyrazolone Derivatives as Multitarget Therapeutic Agents: Design, Synthesis, Characterization, Biological Evaluation, In Silico ADME/T Profiling and Molecular Docking Study” (Pharmacology Research & Perspectives, 2025).

Common to all, as to assay: biochemical
Experiment [1] addresses hCA II (Homo sapiens, UniProt P00918). The class given is biochemical. The following applies: Lineweaver-Burk; for Ki: mean ± standard error, read-out: K I hCA II. The protocol: (§1) First, purification of hCA I and hCA II enzymes for this study followed a modified procedure derived from prior literature sources. To evaluate the inhibitory effects, the esterase activities of hCA isoforms were assessed using the p‐nitrophenylacetate substrate, which is converted by both isoforms to the p‐nitrophenolate ion, as described in our prior studies. The assessment of ChE activities involved a modified adaptation of the Ellman's method, incorporating acetylthiocholine iodide for AChE and […] for BChE as the respective substrates.
(§2) The inhibition effects of the novel sulfonamide‐bearing pyrazolone derivatives were determined with different inhibitor concentrations (at least five) against hCA isoenzymes and ChEs. The IC 50 of the derivatives was calculated from Activity (%)–[inhibitor] graphs for derivatives. The inhibition types and K I values were found by Lineweaver and Burk's curves. The data analysis and graph generation were performed using GraphPad Prism version 8 for Mac (GraphPad Software, La Jolla, California, USA). The goodness of fit for enzyme inhibition models was compared using the extra sum‐of‐squares F test and the AICc approach.

Experiment [2] deals with hCA I (Homo sapiens, UniProt P00915). The class given is biochemical. The following applies: Lineweaver-Burk; for Ki: mean ± standard error, read-out: K I hCA I. The protocol:
as §1, §2

Experiment [3] addresses AChE (Homo sapiens, UniProt P22303). The class given is biochemical. The following applies: Lineweaver-Burk; for Ki: mean ± standard error, read-out: K I AChE. The protocol: as §1, §2
Experiment [4] concerns the target BChE (Homo sapiens, UniProt P06276). Conditions: mean ± standard error; Lineweaver-Burk; read-out: K I BChE. As for the experimental part:
as §1, §2

Sequence of hCA I (P00915 whole entry): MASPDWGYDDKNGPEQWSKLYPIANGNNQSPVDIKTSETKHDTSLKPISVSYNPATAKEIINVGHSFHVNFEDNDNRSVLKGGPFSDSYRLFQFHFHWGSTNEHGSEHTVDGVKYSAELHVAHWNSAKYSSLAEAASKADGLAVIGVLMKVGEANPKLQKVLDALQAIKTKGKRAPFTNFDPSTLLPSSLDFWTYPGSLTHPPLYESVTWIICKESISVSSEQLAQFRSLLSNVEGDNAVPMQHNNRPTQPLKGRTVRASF
Sequence of BChE (P06276 29-602, species assumed): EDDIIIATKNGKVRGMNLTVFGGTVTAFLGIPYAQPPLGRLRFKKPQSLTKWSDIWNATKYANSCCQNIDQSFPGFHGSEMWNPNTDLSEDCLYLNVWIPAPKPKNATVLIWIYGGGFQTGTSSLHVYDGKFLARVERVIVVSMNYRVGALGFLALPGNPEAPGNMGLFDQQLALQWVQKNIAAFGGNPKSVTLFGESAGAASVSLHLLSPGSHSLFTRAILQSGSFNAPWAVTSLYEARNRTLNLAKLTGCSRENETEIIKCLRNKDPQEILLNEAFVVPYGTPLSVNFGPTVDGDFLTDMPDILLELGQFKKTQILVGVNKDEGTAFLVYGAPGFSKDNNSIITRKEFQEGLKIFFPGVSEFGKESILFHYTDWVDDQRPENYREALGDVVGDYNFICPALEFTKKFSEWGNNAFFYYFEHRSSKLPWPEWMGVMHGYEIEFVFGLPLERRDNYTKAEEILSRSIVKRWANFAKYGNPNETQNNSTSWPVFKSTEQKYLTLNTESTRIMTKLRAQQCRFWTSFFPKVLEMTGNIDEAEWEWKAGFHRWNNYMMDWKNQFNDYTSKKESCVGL
Sequence of AChE (P22303 32-614): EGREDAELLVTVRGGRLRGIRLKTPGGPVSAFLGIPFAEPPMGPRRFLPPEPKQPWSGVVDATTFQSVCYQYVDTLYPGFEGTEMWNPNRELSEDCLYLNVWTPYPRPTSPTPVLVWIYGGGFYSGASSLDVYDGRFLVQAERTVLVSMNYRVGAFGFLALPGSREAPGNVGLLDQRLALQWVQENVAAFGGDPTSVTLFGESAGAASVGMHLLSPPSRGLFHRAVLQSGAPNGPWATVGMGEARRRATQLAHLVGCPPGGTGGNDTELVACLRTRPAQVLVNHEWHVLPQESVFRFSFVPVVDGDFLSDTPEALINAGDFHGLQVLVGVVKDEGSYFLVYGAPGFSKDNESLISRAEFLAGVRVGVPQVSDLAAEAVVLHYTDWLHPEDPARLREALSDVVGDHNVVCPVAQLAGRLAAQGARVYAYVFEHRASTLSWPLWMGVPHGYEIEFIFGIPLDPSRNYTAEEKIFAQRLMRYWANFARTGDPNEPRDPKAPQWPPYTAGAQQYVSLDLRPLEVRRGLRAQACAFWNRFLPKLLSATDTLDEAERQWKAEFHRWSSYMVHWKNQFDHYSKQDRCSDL

As for `CC1=NN(C(=O)c2ccccc2)C(=O)C1/N=N/c1ccc(S(N)(=O)=O)cc1` (stereo not drawn) [1a, 4‐[(1‐Benzoyl‐3‐Methyl‐5‐Oxo‐4,5‐Dihydro‐1H‐Pyrazol‐4‐Yl)diazinyl] Benzenesulfonamide], the Ki turned out to be 65.5 ± 5.42 nM in experiment [1], 53.9 ± 5.03 nM in experiment [2], 11.2 ± 1.15 nM in experiment [3] and 95.5 ± 5.78 nM in experiment [4].

As to `CC1=NN(C(=O)c2ccc(Cl)cc2)C(=O)C1/N=N/c1ccc(S(N)(=O)=O)cc1` (stereo not drawn) [1b, 4‐([1‐(4‐Chlorobenzoyl)‐3‐Methyl‐5‐Oxo‐4,5‐Dihydro‐1H‐Pyrazol‐4‐Yl]Diazenyl) Benzenesulfonamide], the Ki is 50.8 ± 3.36 nM in experiment [1], 55.9 ± 3.29 nM in experiment [2], 13.3 ± 1.43 nM in experiment [3] and 73.3 ± 12.2 nM in experiment [4].

Regarding `CC1=NN(C(=O)c2ccc(Br)cc2)C(=O)C1N=Nc1ccc(S(N)(=O)=O)cc1` (stereo not drawn) [1c, 4‐([1‐(4‐Bromobenzoyl)‐3‐Methyl‐5‐Oxo‐4,5‐Dihydro‐1H‐Pyrazol‐4‐Yl]Diazenyl) Benzenesulfonamide], the “inhibition type hCA II” value in experiment [1] is given as “non‐competitive”. The Ki in experiment [1] was determined as 85.4 ± 6.6 nM; in experiment [2], 49.2 ± 4.27 nM; in experiment [3] it was 9.47 ± 1.23 nM; in experiment [4], 34.8 ± 5.88 nM.

As to `CC1=NN(C(=O)c2ccc(C)cc2)C(=O)C1/N=N/c1ccc(S(N)(=O)=O)cc1` (stereo not drawn) [1d, 4‐([3‐Methyl‐1‐(4‐Methylbenzoyl)‐5‐Oxo‐4,5‐Dihydro‐1H‐Pyrazol‐4‐Yl]Diazenyl) Benzenesulfonamide], the Ki amounted to 42.6 ± 2.92 nM in experiment [1], 65.1 ± 3 nM in experiment [2], 16 ± 1.6 nM in experiment [3] and 64.6 ± 7.59 nM in experiment [4].

Turning to `COc1ccc(C(=O)N2N=C(C)C(N=Nc3ccc(S(N)(=O)=O)cc3)C2=O)cc1` (stereo not drawn) [1e, 4‐([1‐(4‐Methoxybenzoyl)‐3‐Methyl‐5‐Oxo‐4,5‐Dihydro‐1H‐Pyrazol‐4‐Yl]Diazenyl) Benzenesulfonamide], in experiment [1], the “inhibition type hCA II” value is recorded as “competitive”. The Ki in experiment [1] was 63.7 ± 6.71 nM; in experiment [2] it was 75.5 ± 4.91 nM; in experiment [3] it was 14 ± 1.49 nM; in experiment [4], 80.9 ± 9.41 nM. Moreover, in experiment [2], the “inhibition type hCA I” value is “non‐competitive”.

With `CC1=NN(C(=O)c2cccc(Cl)c2)C(=O)C1/N=N/c1ccc(S(N)(=O)=O)cc1` (stereo not drawn) [1f, 4‐([1‐(3‐Chlorobenzoyl)‐3‐Methyl‐5‐Oxo‐4,5‐Dihydro‐1H‐Pyrazol‐4‐Yl]Diazenyl) Benzenesulfonamide], the Ki came out at 62.2 ± 4.19 nM in experiment [1], 66.8 ± 5.15 nM in experiment [2], 7.45 ± 0.98 nM in experiment [3] and 58.2 ± 8.11 nM in experiment [4]. The “inhibition type AChE” value in experiment [3] is on record as “competitive”.

For the compound `CC1=NN(C(=O)c2ccccc2)C(=O)C1/N=N/c1cccc(S(N)(=O)=O)c1` (stereo not drawn) [2a, 3‐[(1‐Benzoyl‐3‐Methyl‐5‐Oxo‐4,5‐Dihydro‐1H‐Pyrazol‐4‐Yl)diazinyl] Benzenesulfonamide], the Ki came to 55.7 ± 4.14 nM in experiment [1], 73.2 ± 7.17 nM in experiment [2], 10.5 ± 0.9 nM in experiment [3] and 98.3 ± 7.34 nM in experiment [4].

On to `CC1=NN(C(=O)c2ccc(Cl)cc2)C(=O)C1/N=N/c1cccc(S(N)(=O)=O)c1` (stereo not drawn) [2b, 3‐([1‐(4‐Chlorobenzoyl)‐3‐Methyl‐5‐Oxo‐4,5‐Dihydro‐1H‐Pyrazol‐4‐Yl]Diazenyl) Benzenesulfonamide], for which the “inhibition type hCA II” value in experiment [1] is “non‐competitive”. For the same compound, the Ki worked out at 24.8 ± 1.57 nM in experiment [1], 37.1 ± 2.43 nM in experiment [2], 8.66 ± 0.93 nM in experiment [3] and 76.4 ± 11.6 nM in experiment [4].

With `CC1=NN(C(=O)c2ccc(Br)cc2)C(=O)C1/N=N/c1cccc(S(N)(=O)=O)c1` (stereo not drawn) [2c, 3‐([1‐(4‐Bromobenzoyl)‐3‐Methyl‐5‐Oxo‐4,5‐Dihydro‐1H‐Pyrazol‐4‐Yl]Diazenyl) Benzenesulfonamide], the Ki was found to be 28.8 ± 2.51 nM in experiment [1], 44.6 ± 2.84 nM in experiment [2], 8.43 ± 1.42 nM in experiment [3] and 96 ± 5.44 nM in experiment [4].

Turning to `CC1=NN(C(=O)c2ccc(C)cc2)C(=O)C1N=Nc1cccc(S(N)(=O)=O)c1` (stereo not drawn) [2d, 3‐([3‐Methyl‐1‐(4‐Methylbenzoyl)‐5‐Oxo‐4,5‐Dihydro‐1H‐Pyrazol‐4‐Yl]Diazenyl) Benzenesulfonamide], the Ki in experiment [1] worked out at 36.2 ± 2.78 nM; in experiment [2], 18 ± 2.86 nM; in experiment [3], 15.8 ± 1.04 nM; in experiment [4] it was 88.6 ± 12.9 nM. The “inhibition type hCA I” value in experiment [2] is given as “competitive”.

Take `COc1ccc(C(=O)N2N=C(C)C(/N=N/c3cccc(S(N)(=O)=O)c3)C2=O)cc1` (stereo not drawn) [2e, 3‐([1‐(4‐Methoxybenzoyl)‐3‐Methyl‐5‐Oxo‐4,5‐Dihydro‐1H‐Pyrazol‐4‐Yl]Diazenyl) Benzenesulfonamide]: the Ki came out at 35.4 ± 1.94 nM in experiment [1], 49 ± 6.25 nM in experiment [2], 13.5 ± 0.91 nM in experiment [3] and 93.8 ± 10.5 nM in experiment [4].

As to `CC1=NN(C(=O)c2cccc(Cl)c2)C(=O)C1/N=N/c1cccc(S(N)(=O)=O)c1` (stereo not drawn) [2f, 3‐([1‐(3‐Chlorobenzoyl)‐3‐Methyl‐5‐Oxo‐4,5‐Dihydro‐1H‐Pyrazol‐4‐Yl]Diazenyl) Benzenesulfonamide], the Ki in experiment [1] was 33.3 ± 4.09 nM; in experiment [2], 37.7 ± 2.06 nM; in experiment [3], 9.52 ± 0.86 nM; in experiment [4] it was 136 ± 17.4 nM.
